Experimental findings from ChEMBL document CHEMBL1135592, “Structural determinants of A(3) adenosine receptor activation: nucleoside ligands at the agonist/antagonist boundary” (J Med Chem, 2002) are described below.

The term Ki denotes the equilibrium dissociation constant of an inhibitor or competing ligand from its target. The term EC50 denotes the concentration giving half of the maximal effect.

The target of test [1] is T1, Adenosine receptor A3 (Homo sapiens, UniProt P0DMS8).
T1 sequence (P0DMS8 whole entry): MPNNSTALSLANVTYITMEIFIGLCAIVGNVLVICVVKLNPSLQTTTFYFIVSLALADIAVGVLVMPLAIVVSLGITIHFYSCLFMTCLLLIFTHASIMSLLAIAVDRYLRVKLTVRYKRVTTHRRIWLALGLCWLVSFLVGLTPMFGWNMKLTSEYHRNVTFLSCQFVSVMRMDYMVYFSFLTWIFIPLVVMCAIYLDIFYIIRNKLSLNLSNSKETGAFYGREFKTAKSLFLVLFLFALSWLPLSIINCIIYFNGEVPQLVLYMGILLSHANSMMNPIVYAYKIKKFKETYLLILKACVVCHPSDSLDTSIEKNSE
The test can be described thus: Affinity for human Adenosine A3 receptor expressed in CHO cell. In kind it is cell-based.

The target of test [2] is Adenosine receptor A3 (Homo sapiens, UniProt P0DMS8, W243A). The test can be described thus: Binding affinity towards Adenosine A3 receptor (W243 A mutant receptor).
Chain of Adenosine receptor A3 (Homo sapiens, UniProt P0DMS8, W243A) (P0DMS8 whole entry W243A): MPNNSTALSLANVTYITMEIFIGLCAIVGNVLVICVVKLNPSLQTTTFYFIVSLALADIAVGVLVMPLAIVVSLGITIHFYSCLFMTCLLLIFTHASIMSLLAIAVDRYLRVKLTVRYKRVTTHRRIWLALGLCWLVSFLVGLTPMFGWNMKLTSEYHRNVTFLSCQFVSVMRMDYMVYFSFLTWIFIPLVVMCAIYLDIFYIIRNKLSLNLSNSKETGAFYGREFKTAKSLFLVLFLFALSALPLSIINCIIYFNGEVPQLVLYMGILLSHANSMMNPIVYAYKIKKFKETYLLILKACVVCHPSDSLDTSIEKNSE
Test [3] concerns the target T1, Adenosine receptor A3. The test can be described thus: Binding affinity towards human Adenosine A3 receptor wild type.
Test [4] deals with T2, Adenosine receptor A3 (Rattus norvegicus, UniProt P28647).
T2 sequence (P28647 whole entry): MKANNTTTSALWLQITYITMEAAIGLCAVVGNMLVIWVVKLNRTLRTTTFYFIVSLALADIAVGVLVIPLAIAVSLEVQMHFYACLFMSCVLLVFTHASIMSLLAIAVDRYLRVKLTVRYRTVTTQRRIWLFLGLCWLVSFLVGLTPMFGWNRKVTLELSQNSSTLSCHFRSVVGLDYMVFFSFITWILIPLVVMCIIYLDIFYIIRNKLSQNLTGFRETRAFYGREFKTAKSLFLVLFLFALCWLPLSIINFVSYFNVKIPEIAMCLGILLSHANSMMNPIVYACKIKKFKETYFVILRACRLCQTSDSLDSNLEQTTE
The test can be described thus: Binding affinity of adenosine derivative for endogenous rat Adenosine A3 receptor of RBL-2H3.

Test [5] addresses Adenosine receptor A3 (Homo sapiens, UniProt P0DMS8). The test can be described thus: Binding affinity towards Adenosine A3 receptor (W243 mutant receptor).
In test [6] the target is T2, Adenosine receptor A3. The test can be described thus: Binding affinity of adenosine derivative for recombinant rat Adenosine A3 receptor expressed on CHO cell.
Test [7] has as its target T1, Adenosine receptor A3. The test can be described thus: Effect on forskolin-stimulated cyclic AMP production in intact chinese hamster ovary (CHO) cell expressing the human Adenosine A3 receptor. In kind it is functional.
The target in test [8] is Adenosine receptor A3 (Homo sapiens, UniProt P0DMS8, H95A). In words: Binding affinity towards Adenosine A3 receptor (H95A mutant receptor).
Chain of Adenosine receptor A3 (Homo sapiens, UniProt P0DMS8, H95A) (P0DMS8 whole entry H95A): as the sequence (P0DMS8 whole entry W243A) above, with H95A, A243W counted along it
The target of test [9] is T1, Adenosine receptor A3. In words: biochemical.
Description: Binding affinity in membrane of CHO cell stably expressing recombinant human Adenosine A3 receptor in the presence of GTPgammaS using [3H]8-ethyl-4-methyl-2-phenyl-(8R)-4,5,7,8-tetrahydro-1H-imidazo[2,1-i]-purin-5-one as radioligand
For test [10], the target named is T1, Adenosine receptor A3. In words: biochemical. This is another data set of the same source.
Description: Bnding affinity in membrane of CHO cell stably expressing recombinant human Adenosine A3 receptor using [3H]8-ethyl-4-methyl-2-phenyl-(8R)-4,5,7,8-tetrahydro-1H-imidazo[2,1-i]-purin-5-one as radioligand
Test [11] deals with T1, Adenosine receptor A3. In words: Affinity towards human Adenosine A3 receptor in CHO cell. It counts as cell-based.

For `OCC12CC1C(n1cnc3c(NCc4cccc(I)c4)nc(Cl)nc31)C1OC12` (configuration not stated), the Ki came to 572 nM in test [1], 490 nM in test [2] and 584 nM in [3].
Turning to `CCCOC(=O)c1c(-c2ccccc2)nc(CC)c(C(=O)SCC)c1CCC`, the Ki came out at 357 nM in [4], 2150 nM in test [5], 238 nM in [3] and 234 nM in [6].
On to `Nc1nc(Cl)nc2c1ncn2C1C(O)C(O)C2(CO)CC12` (configuration not stated), for which the Ki in [2] worked out at 46 nM; in [3], 83 nM.
Consider `O=C1NCC[C@@]12O[C@@H](n1cnc3c(NCc4cccc(I)c4)ncnc31)[C@H](O)[C@@H]2O`, for which the Ki in [4] is 51 nM; in test [6], 49 nM.
Regarding `Nc1nc(F)nc2c1ncn2[C@@H]1O[C@H](CO)[C@@H](O)[C@H]1O`, it took 2660 nM to reach a half-maximal effect in test [7] (EC50). Further, the Ki in test [1] came to 99 nM.
On to `CNC(=O)C12CC1C(n1cnc3c(NC)nc(Cl)nc31)C(O)C2O` (configuration not stated), for which the EC50 in [7] turned out to be 1.4 nM. Also, the affinity in test [1], expressed as Ki, was 3.4 nM.
Taken in the same sequence, the figures for `CCCCn1c(=O)c2c(ncn2[C@@H]2O[C@H](C(=O)NC)[C@@H](O)[C@H]2O)n(CCCC)c1=O` were 828 nM and 816 nM.
Molecule `CNC(=O)C12CC1C(n1cnc3c(NCc4cccc(I)c4)ncnc31)C(O)C2O` (configuration not stated) displayed an EC50 in [7] of 5.4 nM. Further, the results for the Ki in test [1], in test [2] and in test [3] were 1.3 nM, 1.2 nM and 2.1 nM, respectively.
As for `Nc1nc(Cl)nc2c1ncn2[C@@H]1O[C@H](CO)[C@@H](O)[C@H]1O`, the EC50 in test [7] is 1630 nM. Besides, the Ki in [1] is 87 nM.
Consider `OCC12CC1C(n1cnc3c(NCc4cccc(I)c4)nc(Cl)nc31)C(O)C2O` (configuration not stated), for which the Ki in test [4] came out at 2.9 nM; in test [1], 1.9 nM; in test [8] it was 460 nM; in test [5], 1.3 nM; in test [3], 1.7 nM; in test [9] it was 4 nM. For the same molecule, the Ki in [10] came out at 2.7 nM; in [6] it was 1.3 nM.
`OC[C@H]1O[C@@H](n2cnc3c(NCc4cccc(I)c4)nc(Cl)nc32)[C@H](O)[C@@H]1O`: the inhibitory constant (Ki) was determined as 2.7 nM in test [4] and 1.6 nM in [6].
In the case of `CNC(=O)[C@H]1O[C@@H](n2cnc3c(NCc4cccc(I)c4)nc(Cl)nc32)[C@@H]2O[C@@H]21`, the inhibition constant Ki in [11] stood at 1100 nM.
In turn, `OC[C@H]1O[C@@H](n2cnc3c(NC4CCCC4)ncnc32)[C@H](O)[C@@H]1O` [N6-CYCLOPENTYLADENOSINE] yielded an EC50 in test [7] of 242 nM. In addition, the Ki in test [8] came to 615 nM; in test [2], 137 nM; in test [3] it was 142 nM.
For `OCC12CC1C(n1cnc3c(NCc4cccc(I)c4)ncnc31)C(O)C2O` (configuration not stated), the inhibition constant Ki came to 9.2 nM in test [1], 99 nM in test [8], 2.7 nM in test [2] and 3.9 nM in test [3].
